In patent US7750028B2, “Crystal modifications of 1-(2,6-difluorobenzyl)-1H-1, 2,3-triazole-4-carboxamide” (Novartis AG, priority 1997, dated 2010):

Experiments:
Assay type in all cases: physicochemical
[1] = thermodynamic investigations (thermomicroscopy, X-ray powder diffractometry, DSC, solubility tests) of crystal modifications; settings: for thermodynamic stability: comparison of the crystal modifications A/A′, B and C
Excerpt: The modification A or A′ has significant advantages compared with the modification B and compared with the modification C.

[2] = dissolution rate in gastric fluid; settings: comparison between modifications
[3] = dissolution rate in water; settings: comparison between modifications

| dissolution rate [2] | dissolution rate [3] | conversion of the crystals into modification B ([1]; at as low as room temperature) | Compound | thermodynamic stability [1] | thermodynamic stability ([1]; listed as A′) | thermodynamic stability ([1]; listed as Modification C) | conversion into other modifications ([1]; depending on experimental conditions) |
| --- | --- | --- | --- | --- | --- | --- | --- |
| slower dissolution rate | slower dissolution rate |  | NC(=O)c1cn(Cc2c(F)cccc2F)nn1 [modification A, 1-(2,6-difluorobenzyl)-1H-1,2,3-triazole-4-carboxamide] | substantially better thermodynamic stability than the modifications B and C |  |  |  |
| slower dissolution rate | slower dissolution rate |  | NC(=O)c1cn(Cc2c(F)cccc2F)nn1 [modification A′, 1-(2,6-difluorobenzyl)-1H-1,2,3-triazole-4-carboxamide] |  | substantially better thermodynamic stability than the modifications B and C |  |  |
| substantially faster dissolution rate | substantially faster dissolution rate |  | NC(=O)c1cn(Cc2c(F)cccc2F)nn1 [modification B, 1-(2,6-difluorobenzyl)-1H-1,2,3-triazole-4-carboxamide] |  |  |  |  |
|  |  | within a few weeks | NC(=O)c1cn(Cc2c(F)cccc2F)nn1 [modification C, 1-(2,6-difluorobenzyl)-1H-1,2,3-triazole-4-carboxamide] |  |  | the least stable of the three modifications | converted either into the modification A or A′ or into the modification B |
